Source: a melting point compilation (Tetko et al.; mined from patent text by program, amines drawn as free bases though some values may be those of a salt)

Compound	melting point
C[C@@H]1S[C@@H](C(=O)Nc2ccc(CN3C(=O)CCCC3=O)cc2)Cc2cc3c(cc2C1=O)OCO3	205 to 208 °C
O=C1C=CC2(C=C1)N=C(N1CCN(Cc3ccc(F)cc3)CC1)C=C2c1ccccc1	188 °C
O=C(c1ccccc1)c1ncc(=O)n(CC(F)(F)F)n1	174 to 175 °C
CC(C)CCC(=O)CC1c2ccccc2C(=O)N1c1ccc2ccc(Cl)nc2n1 (stereo unspecified)	172 °C
COCCc1sc2ncnc(N)c2c1-c1ccc(NC(=O)Nc2ccc(C)cc2)cc1	128 to 132 °C
CCn1cc(C(=O)O)c(=O)c2cnc(N3CCN(Cc4ccc(NC(C)=O)cc4)CC3)nc21	216 to 219 °C
O=C(Nn1c(=O)c(=O)[nH]c2ccc3ccccc3c21)c1ccccc1	> 300 °C
CC(C)CCCc1c(-c2ccc(S(C)(=O)=O)cc2)cnn(-c2ccc(F)c(F)c2)c1=O	111 to 113 °C
O=c1c(CCO)cnc2c3ccccc3ccn12	185 to 187 °C
CCCCCCCCn1c(=O)c2c(N3CCN(C)CC3)cc(Cl)cc2n(Cc2ccccc2)c1=O	78 to 80 °C
Nc1ncnc2c1cnn2C1OC(CO)C(O)C1O (stereo unspecified)	253 °C
O=C1CN(C(=O)OCC2c3ccccc3-c3ccccc32)CC(=O)O1	180 to 185 °C
O=S1(=O)CCC(=S)Nc2ccc(Cl)cc2C1c1ccccc1F (stereo unspecified)	226 °C
CC(=O)n1ccc(-c2ccc(F)cc2)c1-c1ccc(S(C)(=O)=O)cc1	211 to 214 °C
Cc1nn(-c2cc(Oc3ccc([N+](=O)[O-])cc3Cl)c(Cl)cc2Cl)c(=O)n1C(F)F	135 to 136 °C
CC(NC(=O)Cc1cc(F)cc(F)c1)C(=O)NC1C(=O)NCc2ccccc21 (stereo unspecified)	243 to 244 °C
Cc1nc(N2CCN(Cc3ccccc3)C2=O)sc1C(=O)NCc1cccc(F)c1	169 to 171 °C
Cc1cc(-n2cncn2)ccc1[N+](=O)[O-]	116 to 117 °C
Nc1cc(-c2cc(=O)c(C(=O)O)cn2-c2ccc(F)cc2)ccc1O	231 to 233 °C
O=C(c1ccc(-c2ccc(Cl)cc2)o1)N1CCN(c2cccc(Br)c2)CC1	130 °C

Compound	melting point
CN(c1ccnc(Cl)n1)n1cccc1	102 to 103 °C
CN1CCN(c2cc(-c3cnc4c(c3)N(C(=O)Cc3cc(F)ccc3F)CCN4)ccn2)CC1	> 300 °C
Clc1ccc2c(c1)C(c1ccccc1)=Nc1cccnc1N2	156 to 158 °C
CCOC(OCC)C(N)c1nnnn1C (stereo unspecified)	99 to 101 °C
CCCCCCCN(CCCCCCCCSc1nc(-c2ccccc2)c(-c2ccccc2)[nH]1)C(=O)Nc1ccc(F)cc1F	89 to 91 °C
COc1cc([N+](=O)[O-])ccc1S(=O)(=O)N1C(=O)C(N)(c2ccccc2Cl)c2cc(Cl)ccc21 (stereo unspecified)	229 °C
Cc1cccc(C(=O)Nc2ccc(S(N)(=O)=O)cc2)c1SSc1c(C)cccc1C(=O)Nc1ccc(S(N)(=O)=O)cc1	308 to 309 °C
NCc1cc(-c2ccc(C(F)(F)F)cc2)no1	59 °C
Cc1ccccc1-c1cn(C)cc(-c2cccc(C(F)(F)F)c2)c1=S	193 to 195 °C
CCOC(=O)N1CC=C(c2cc(F)c(C#N)cc2F)CC1	85 to 87 °C
CCNC(=O)N1C[C@@H](c2c[nH]c3ccccc23)[C@H](c2cn3c4c(cccc24)CCC3)C1	278 to 279 °C
Cc1oc(-c2ccccc2)nc1CCOc1ccc(COc2cc3ccccc3cc2C(=O)O)cc1	135 to 137 °C
COc1cc(OCc2ccccn2)ccc1/C=C/c1cc(/C=C/c2cccc3ncccc23)[nH]n1	107 to 120 °C
O=C(Nc1ccc(-n2nc(C3CC3)cc2C2CC2)cc1)c1ccc2nc[nH]c2c1	170 to 176 °C
Cc1c(C)c2c(c(C)c1OCc1ccccc1)CC(CCN1C(=O)c3ccccc3C1=O)O2 (stereo unspecified)	108 to 110 °C
CCCCCCCc1ncc(CO)[nH]1	82 to 84 °C
Cn1nc(-c2ccccc2)c(Oc2ccc([N+](=O)[O-])cc2)c1-c1ccccc1	85 to 110 °C
CC(CS(=O)(=O)c1ccc(Oc2ccc(Cl)cc2)cc1)N(O)C=O (stereo unspecified)	144 to 145 °C
O=C(/C=C/c1cccnc1)NCCc1cccc(OCc2ccccc2)c1	115 to 116 °C
COc1ccc(-c2ccc3c(C(=O)c4ccn5c4C(C)(C)SC5c4cccnc4)c[nH]c3c2)cc1 (stereo unspecified)	236 to 239 °C

Compound	melting point
CCCCCCC1(Br)CC(=CNc2ccccc2)OC1=O (stereo unspecified)	147 to 148 °C
Cc1noc(C)c1S(=O)(=O)Nc1ccc(Cl)cc1[N+](=O)[O-]	130 to 131 °C
OC1(COc2cccc3onc(OCC4CCN(CC5(O)CCOCC5)CC4)c23)CCCC1	136 °C
O=C(NC(=O)c1c(F)cccc1F)Nc1cc(Cl)c(Oc2ccc(S(=O)(=O)c3ccc(Cl)cc3)cc2)c(Cl)c1	207 to 209 °C
Nc1nc(-c2cc(Cl)ccc2Cl)nc(N2CCN(c3ncccn3)CC2)n1	224 to 225 °C
CC(c1ccc(-c2ccccc2)c(F)c1)c1nc(CCCl)no1 (stereo unspecified)	72 to 72.5 °C
c1ccc2sc(SSN(C3CCCCC3)C3CCCCC3)nc2c1	84 to 86 °C
CC(C)C1(C)NC(c2ccc3ccccc3n2)=NC1=O (stereo unspecified)	112 to 117 °C
CN=C1CN(c2ccccc2)C(=O)N1C	160 to 162 °C
CCCCCCCCCCCCCCCCCC(=O)N1CC2(CCCCC2)NC2(CCCCC2)C1	56 to 59 °C
CS(=O)(=O)Nc1ccc(N2CCN(c3ccncc3)CC2)cc1	230 to 232 °C
O=c1[nH]c2sccc2c(=O)n1CCN1CCC(=C(c2ccc(F)cc2)c2ccc(F)cc2)CC1	205 to 207 °C
COc1ccc(-c2nc(Br)c(C(F)(F)F)[nH]2)cc1	177 to 178 °C
O=C(O)CC1CCCc2c1n(Cc1ccc(Cl)cc1)c1ccc(F)cc21 (single isomer, unassigned; (-))	151 to 152 °C
CCCCCCOCCOc1ccc(-c2ccc3c(c2)C=C(C(=O)Nc2ccc(CN(C)C4CCOCC4)cc2)CCS3(=O)=O)cc1	180 to 182 °C
CN[C@@H]1COc2cc(Cl)cc(-c3ccc(Cl)cc3Cl)c2O1	140 °C
O=C(CCc1ccc(F)cc1)Cn1ccnc1	69 to 70 °C
O=c1c(N2CCCNCC2)nc2cc(F)ccc2n1-c1ccccc1	151 to 152 °C
C=C1SC(=O)N(c2ccc3cc(-c4ccc(OC)c(C56CC7CC(CC(C7)C5)C6)c4)ccc3c2)C1=O	286 to 287 °C

Further lines, results first:

melting point	Compound
117 to 119 °C	COc1ccc(CNc2nc(Cl)ncc2C(=O)c2ccccn2)cc1Cl
114 to 117 °C	CCOC=C1C=C(C(C)(C)C)C(=O)C(C(C)(C)C)=C1
175 to 179 °C	CC(=O)OCC1OC(n2cc(I)c(=O)[nH]c2=O)C(OC(C)=O)C1OC(C)=O (stereo unspecified)
182 to 184 °C	CCCSc1ncc(CC(NC(C)=O)C(=O)O)n1Cc1ccccc1Cl (stereo unspecified)
126 to 127 °C	CCOC(=O)C(=CNc1nccs1)C(=O)c1c(Cl)cc(Cl)nc1Cl
98 to 100 °C	CCOC(=O)c1cc(F)c(C2CNCC2NC(=O)OC(C)(C)C)cc1F (stereo unspecified)
194 to 195 °C	CC(=O)Oc1ccc2c(c1)COc1cc3cc(OC(C)=O)ccc3cc1-2
184 to 185 °C	COC(=O)[C@H](O)[C@@H](NC(=O)c1ccccc1)c1ccccc1
250 to 251 °C	CCn1c(=O)c2c(nc(/C=C/c3cccc(O)c3)n2C)n(CC)c1=O
141 to 142 °C	CC(C)(C)OC(=O)N1CCN(c2ccc([N+](=O)[O-])cc2C#N)CC1
84 to 85 °C	COc1ccc(CN2Cc3cc(OC)c(O)cc3C(OC)C2)cc1 (stereo unspecified)
131 to 132 °C	CCc1nc2c(N)nc3cc(Br)ccc3c2n1CC1CCN(C(=O)OC(C)(C)C)CC1
176 to 177 °C	CC(C)C(C)CCC(C)C1CC(=O)C2=C3C(=O)CC4CC(OC(=O)c5ccccc5)CCC4(C)C3CCC21C (stereo unspecified)
55 to 56 °C	CCCCCCn1cnc(NC)c1C(=O)NCCCCCCOc1ccc(Cl)cc1
154 to 155 °C	COc1cc(CNC(=O)c2oc(=O)c3ncccc3c2-c2ccc(C)cc2)cc(OC)c1
176 to 178 °C	CCOC(=O)c1cc2cc(C)c(C(F)(F)F)cc2[nH]1
189 to 190 °C	COC(=O)c1ccc(-c2nc(-c3ccc(Cl)s3)co2)cc1
145 to 147 °C	O=C(Oc1ccccc1O)c1cc(Br)c(Cl)s1
176 to 177 °C	CCOC(=O)/C=C/c1ccc(C2COc3c(C)c(C)c(NC(=O)CC(C)(C)C)c(C)c32)cc1 (stereo unspecified)

melting point	Compound
88 to 89 °C	COc1cccc(CC(=O)O)c1OCCc1ccccc1
120 to 121 °C	CC(C)(C)c1cc(OC(=O)c2ccccc2)ccc1O
189 to 191 °C	Cc1ccc(S(=O)(=O)N(c2ccc(Cl)cc2C(N)=S)C(C)C)cc1
80 to 82 °C	CC(C)(C)C(=O)Oc1ccc(CCNC(=O)c2cccnc2)cc1
107 to 109 °C	CCC(CC)(NCCCn1cnc(CCNC(=O)c2ccc(C#N)cc2)c1)c1ccccc1
193 to 194 °C	CCOC(=O)C(C)CSCC(NC(=O)CCC(N)C(=O)O)C(=O)NCC(=O)O (stereo unspecified)
202 °C	CC(C)(C)OC(=O)NC1CCN(CCn2c(=O)ccc3ccc(C#N)cc32)CC1
148 to 151 °C	Cc1cccc(C2(CNC(=O)Nc3c(C(C)C)cccc3C(C)C)CCC2)c1
88.5 to 90 °C	CCCCNC(=O)[C@@H](C[C@H](O)[C@@H](N)CC1CCCCC1)C(C)C
103 °C	CC(C)(O)CC(O)=C(C#N)CC(=O)Nc1ccccc1
255 to 256 °C	CC1CC(=NNc2ccccc2)c2ncc(C(=O)O)c(=O)n2C1 (stereo unspecified)
208 to 210 °C	COCCNc1nc(-n2ccnc2)nc2ccc(C(C)=O)cc12
120 to 122 °C	CN(C)NC(=O)C(C)(C)C
83 °C	CC(=O)n1ncc2c(OCC3CO3)cccc21 (stereo unspecified)
177 to 179 °C	COCC1(C)CC(n2ccccc2=O)c2cc(C(N)=O)ccc2O1 (stereo unspecified)
261 to 262 °C	CC(C)CC(NC(=O)c1ccc(F)cc1SSc1cc(F)ccc1C(=O)NC(CC(C)C)C(=O)O)C(=O)O (stereo unspecified)
183 to 185 °C	CCCCC1OC(=O)c2cc(NC(N)=S)ccc21 (stereo unspecified)
148 to 149 °C	CCCCOc1c(CNC(=O)OC(C)(C)C)n(CC(C)C)c(=O)c2ccc(C(=O)OC)cc12
